Results published in ChEMBL document CHEMBL1201862, “PubChem BioAssay data set” (2004).
Calls of active or inactive are those of the source.

Tests used:
[1] = insulin promoter down-regulators in MIN6 cells, imaging, high-content screening, mouse beta cells (AID 1628); type: functional
[2] = cytotoxicity in MIN6 insulinoma cells, dose response, cytotoxicity control, cell-based, mouse insulinoma (AID 2122); type: functional;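 note: confirmatory high-throughput counterscreen run to flag cytotoxic compounds; mouse MIN-6 beta cells carrying an insulin promoter eGFP reporter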
[3] = growth suppression of PTEN-null colon cells, dose response, cell-based, HCT116 PTEN knockout (AID 1047); type: functional;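 note: HCT116 colon tumor cells with PTEN knocked out; cells exposed to compound for 60 hours before readout; potency for loss of cell viability measured by luminescence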
[4] = growth suppression of beta-catenin-knockout colon cells, dose response, cell-based, HCT116, human colon tumor (AID 1045); type: functional;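 note: HCT116 colon tumor cells with beta catenin knocked out; cells exposed to compound for 60 hours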
[5] = target: Large T antigen (Simian virus 40, UniProt P03070); type: functional, Betapolyomavirus macacae;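 note: Confirmatory-stage PubChem screen for compounds that inhibit SV40 T antigen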
Chain of Large T antigen (P03070 whole entry): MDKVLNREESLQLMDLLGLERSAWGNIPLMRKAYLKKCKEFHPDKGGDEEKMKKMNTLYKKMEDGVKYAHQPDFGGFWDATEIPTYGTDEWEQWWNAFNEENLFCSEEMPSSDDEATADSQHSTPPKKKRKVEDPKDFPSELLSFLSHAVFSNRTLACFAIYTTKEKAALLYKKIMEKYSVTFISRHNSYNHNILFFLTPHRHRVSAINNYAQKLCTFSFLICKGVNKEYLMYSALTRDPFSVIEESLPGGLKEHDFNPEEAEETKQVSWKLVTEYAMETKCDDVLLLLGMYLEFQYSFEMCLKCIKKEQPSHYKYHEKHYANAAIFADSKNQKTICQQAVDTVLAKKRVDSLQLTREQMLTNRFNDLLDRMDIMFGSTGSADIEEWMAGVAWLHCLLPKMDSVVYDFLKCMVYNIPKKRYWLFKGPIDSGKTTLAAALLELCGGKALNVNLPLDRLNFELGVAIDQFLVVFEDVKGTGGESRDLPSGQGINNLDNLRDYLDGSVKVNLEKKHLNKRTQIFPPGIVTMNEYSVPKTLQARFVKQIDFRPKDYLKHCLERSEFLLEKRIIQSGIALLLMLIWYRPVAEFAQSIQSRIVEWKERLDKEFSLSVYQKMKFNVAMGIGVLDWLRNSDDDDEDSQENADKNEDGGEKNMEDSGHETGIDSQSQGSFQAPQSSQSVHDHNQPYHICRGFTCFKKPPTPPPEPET

[6] = inhibitors of SNCA 5'UTR-driven reporter translation, confirmation, H4 neuroglioma cells, luminescence (AID 1988); type: functional, cell-based
[7] = target: T1, Cytochrome P450 2D6 (Homo sapiens, UniProt P10635);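 note: CYP2D6 member of a cytochrome P450 panel assay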
T1 sequence (P10635 whole entry): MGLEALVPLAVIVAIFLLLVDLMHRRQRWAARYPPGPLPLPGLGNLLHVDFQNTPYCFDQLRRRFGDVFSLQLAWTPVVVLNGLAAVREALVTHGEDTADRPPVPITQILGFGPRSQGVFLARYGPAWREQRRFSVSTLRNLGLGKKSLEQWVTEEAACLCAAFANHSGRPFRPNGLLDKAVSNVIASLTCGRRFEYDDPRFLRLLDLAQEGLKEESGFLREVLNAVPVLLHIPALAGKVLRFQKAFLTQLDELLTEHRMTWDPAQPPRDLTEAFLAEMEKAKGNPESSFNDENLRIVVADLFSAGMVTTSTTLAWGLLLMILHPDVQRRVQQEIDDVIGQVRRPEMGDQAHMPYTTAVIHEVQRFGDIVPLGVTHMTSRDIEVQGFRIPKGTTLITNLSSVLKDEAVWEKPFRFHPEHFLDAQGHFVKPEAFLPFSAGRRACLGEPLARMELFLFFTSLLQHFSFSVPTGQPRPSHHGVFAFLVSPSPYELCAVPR

[8] = target: Cytochrome P450 2C19 (Homo sapiens, UniProt P33261); assay: Cytochrome panel assay with activity outcomes. Panel member name: p450-cyp2c19 Compounds with AC50 equal or less than 10 uM are considered active; type: functional
Chain of Cytochrome P450 2C19 (P33261 whole entry): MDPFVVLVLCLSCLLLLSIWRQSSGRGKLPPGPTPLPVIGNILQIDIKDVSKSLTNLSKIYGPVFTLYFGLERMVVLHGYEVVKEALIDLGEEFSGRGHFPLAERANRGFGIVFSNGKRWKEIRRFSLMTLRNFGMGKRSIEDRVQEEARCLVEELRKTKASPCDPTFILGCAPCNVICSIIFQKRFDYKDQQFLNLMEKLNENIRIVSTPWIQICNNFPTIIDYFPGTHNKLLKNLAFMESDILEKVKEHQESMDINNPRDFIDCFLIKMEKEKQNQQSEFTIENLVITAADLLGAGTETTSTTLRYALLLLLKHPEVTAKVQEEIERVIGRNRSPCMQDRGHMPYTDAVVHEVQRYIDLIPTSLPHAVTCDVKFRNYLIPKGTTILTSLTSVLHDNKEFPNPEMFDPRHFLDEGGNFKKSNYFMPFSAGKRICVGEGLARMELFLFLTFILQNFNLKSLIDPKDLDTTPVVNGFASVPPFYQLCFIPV

[9] = inhibitors of firefly luciferase expression or activity, dose response, H4 neuroglioma cells, luminescence (AID 1990); type: functional, cell-based
[10] = Luminescence Cell-Based Dose Response HTS to Identify Inhibitors of 5'UTR Stem-Loop Driven Prion Protein mRNA Translation in H4 Neuroglioblastoma Cells. [Related pubchem assays: 1827 (Project Summary), 1813 (Primary HTS)]; type: functional
[11] = target: DNA dC->dU-editing enzyme APOBEC-3G (Homo sapiens, UniProt Q9HC16); type: functional;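 note: Dose-response counterscreen measuring inhibition of APOBEC3G DNA deaminase activity, run while confirming APOBEC3A inhibitors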
Chain of DNA dC->dU-editing enzyme APOBEC-3G (Q9HC16 whole entry): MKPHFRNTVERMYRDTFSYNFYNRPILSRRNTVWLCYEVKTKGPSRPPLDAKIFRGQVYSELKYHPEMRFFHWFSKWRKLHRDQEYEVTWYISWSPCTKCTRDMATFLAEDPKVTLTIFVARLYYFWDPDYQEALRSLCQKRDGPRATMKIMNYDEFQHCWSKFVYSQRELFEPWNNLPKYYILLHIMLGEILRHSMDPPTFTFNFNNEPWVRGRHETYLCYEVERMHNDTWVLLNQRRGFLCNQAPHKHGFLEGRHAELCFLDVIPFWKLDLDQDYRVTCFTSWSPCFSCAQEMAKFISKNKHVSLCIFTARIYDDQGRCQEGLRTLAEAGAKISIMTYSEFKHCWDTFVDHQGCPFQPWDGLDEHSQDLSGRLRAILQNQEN

[12] = target: Cytochrome P450 2C9 (Homo sapiens, UniProt P11712)
Chain of Cytochrome P450 2C9 (P11712 whole entry): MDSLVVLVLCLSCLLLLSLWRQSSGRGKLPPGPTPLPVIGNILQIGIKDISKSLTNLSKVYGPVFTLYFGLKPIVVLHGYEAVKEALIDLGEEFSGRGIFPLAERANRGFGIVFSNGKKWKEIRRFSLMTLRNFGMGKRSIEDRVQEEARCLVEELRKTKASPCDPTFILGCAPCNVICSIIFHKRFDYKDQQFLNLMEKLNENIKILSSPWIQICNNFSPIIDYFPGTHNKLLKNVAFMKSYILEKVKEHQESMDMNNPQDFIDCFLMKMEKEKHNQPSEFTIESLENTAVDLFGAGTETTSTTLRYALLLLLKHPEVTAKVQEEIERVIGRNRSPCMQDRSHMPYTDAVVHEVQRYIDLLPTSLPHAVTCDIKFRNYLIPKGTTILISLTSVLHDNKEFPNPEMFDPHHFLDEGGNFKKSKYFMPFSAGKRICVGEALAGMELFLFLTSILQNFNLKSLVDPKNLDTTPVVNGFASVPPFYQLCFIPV

[13] = target: T1, Cytochrome P450 2D6; remark: listed apart in the source
[14] = target: DNA dC->dU-editing enzyme APOBEC-3A (Homo sapiens, UniProt P31941); assay: Dose Response confirmation of small molecule APOBEC3A DNA Deaminase Inhibitors via a fluorescence-based single-stranded DNA deaminase assay. [Related pubchem assays (depositor defined):AID493011, AID493024]; type: functional
Chain of DNA dC->dU-editing enzyme APOBEC-3A (P31941 whole entry): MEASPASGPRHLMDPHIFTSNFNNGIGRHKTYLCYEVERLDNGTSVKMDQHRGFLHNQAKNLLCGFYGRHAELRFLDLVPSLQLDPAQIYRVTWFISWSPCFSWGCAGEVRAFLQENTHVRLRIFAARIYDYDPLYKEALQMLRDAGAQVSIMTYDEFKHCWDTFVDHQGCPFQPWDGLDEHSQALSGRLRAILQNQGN

Q: For `C=CCC(C#Cc1ccccc1)[N+](C)(C)CC=C` (stereo not drawn), which IC50 [1] is on record?
A: 8.7 µM (active)

Q: What about the IC50 [2] of the same molecule?
A: 10.7 µM (inactive)

Q: For `CCC(C)NCC(=O)Nc1ccc(-c2nc3cc(NC(=O)CNC(C)CC)ccc3o2)cc1` (stereo not drawn), which EC50 [3] is on record?
A: 4.19 µM (active)

Q: What about the IC50 [1] of the same molecule?
A: 2.17 µM (active)

Q: What about the IC50 [2] of the same molecule?
A: 1.66 µM (active)

Q: And the EC50 [4]?
A: 2.98 µM (active)

Q: Which IC50 [5] does the source give for `COc1ccc(NCN2C(=O)C3C4C=CC(C4)C3C2=O)cc1` (stereo not drawn) here?
A: 23.2 µM (active)

Q: With `O=C1NC(=O)N(CCC2=CCCCC2)C(=O)/C1=C\Nc1cccc(F)c1` as the molecule, how does the EC50 [6] read?
A: 41.4 µM (active)

Q: What about the AC50 [7] of the same molecule?
A: inconclusive

Q: What about the AC50 ([8]; read-out: AC50) of the same molecule?
A: 10 µM (inconclusive)

Q: And the EC50 [9]?
A: > 120 µM (not active)

Q: And the EC50 [10]?
A: > 120 µM (not active)

Q: What does the source list for `C[N+](C)(C)CCN(Cc1ccc(Cl)cc1)c1ccccn1.[I-]`?
A: IC50 [11]: 2.01 µM (active); AC50 [12]: inconclusive; AC50 [8]: inconclusive; AC50 [13]: 0.251 µM (inconclusive); IC50 [14]: 2.05 µM (active)

Q: For `Cc1ccc(NC(=O)CSc2nnc(-c3ccncc3)o2)cc1`, which AC50 [7] is on record?
A: inconclusive
